The values that follow come from US20240368163A1, “COMPOUNDS AND METHODS FOR MODULATING SPLICING” (REMIX THERAPEUTICS INC., priority 2021, published 2024).

Holding throughout (format): cell-based, human
Assay [1] deals with HTT. The assay is described as follows: HiBiT protein abundance assay, HTT. As to conditions: Table 13A, modified K562 cells. In short, it runs like this:
(§1)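 Target abundance was measured as HiBiT luminescence after 24 h compound treatment of tagged K562 cells. Responses were normalized between unmodified K562 and DMSO-treated tagged cells, and IC50 taken at the 50% level of a 4PL curve.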

For assay [2], the system named is HTT. The assay is described as follows: Splicing RT-qPCR assay, HTT mRNA canonical junction (CJ) and alternative junction (AJ). Particulars: RT-qPCR panel, canonical junction mRNA, compound concentration having 50% response in CJ decrease, read-out: HTT IC50 (decrease in CJ mRNA levels). The essentials: (§2)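 Splice switching is measured in A673 or K562 cells after 24 h compound exposure (maximum 10 uM, 3-fold steps). Canonical and alternative junction mRNA levels are quantified by RT-qPCR relative to housekeeper and DMSO.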
For orientation: Quantitative PCR measures a nucleic acid by following its amplification.

A further assay concerns SMN2. The assay is described as follows: Splicing RT-qPCR panel, SMN2 canonical junction (CJ) mRNA. Particulars: RT-qPCR panel, canonical junction mRNA, compound concentration having 50% response in CJ decrease, read-out: SMN2 IC50 (decrease in CJ mRNA levels). In short, it runs like this: as §2
Assay [3] concerns Target C. The assay is described as follows: Splicing RT-qPCR panel, Target C canonical junction (CJ) mRNA. As to conditions: RT-qPCR panel, canonical junction mRNA, compound concentration having 50% response in CJ decrease, read-out: Target C IC50 (decrease in CJ mRNA levels). In short, it runs like this:
as §2

In assay [4] the test system is MYB. The assay is described as follows: HiBiT protein abundance assay, MYB. Particulars: Table 13A, modified K562 cells. In short, it runs like this:
as §1

In assay [5] the test system is Target C. The assay is described as follows: HiBiT protein abundance assay, Target C. Particulars: Table 13A, modified K562 cells. In short, it runs like this:
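Cells carrying the HiBiT knock-in were plated at 10000 cells/well, dosed with compound (10-point, 3-fold, 10 μM top final) and incubated 24 hours at 37 °C. Lytic reagent was then added and luminescence read. Percent response fed a 4PL fit for IC50.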

For assay [6], the system named is MYB. The assay is described as follows: Splicing RT-qPCR assay, MYB mRNA canonical junction (CJ) and alternative junction (AJ). Particulars: RT-qPCR panel, canonical junction mRNA, compound concentration having 50% response in CJ decrease, read-out: MYB IC50 (decrease in CJ mRNA levels). The essentials:
as §2

Where two headings read alike, the source gives them in different places.

Usually IC50 stands for the point on the concentration scale where inhibition reaches its midpoint.

As for `CNC1CCN(c2ncc(-c3ccc(-n4cccn4)c4[nH]ncc34)nn2)C1` (stereo not shown) [Compound 485, N-methyl-1-[6-(7-pyrazol-1-yl-1H-indazol-4-yl)-1,2,4-triazin-3-yl]pyrrolidin-3-amine], the IC50 in the assay on HTT [1] (Homo sapiens, K562, 24 h) was 1000 to 10000 nM; in the assay on HTT [2] (Homo sapiens), 1000 to 10000 nM; in the assay on SMN2 (Homo sapiens), 1000 to 10000 nM; with Target C [3] (Homo sapiens), greater than 10000 nM; in the assay with MYB [4] (Homo sapiens, K562, 24 h), 1000 to 10000 nM; in the assay with Target C [5] (Homo sapiens, K562, 24 h), 1000 to 10000 nM. Also, in the assay on MYB [6] (Homo sapiens), the 50% inhibitory concentration (IC50) was in the range of 1000 to 10000 nM.
Regarding `c1cnn(-c2ccc(-c3cnc(N4CCNC(C5CC5)C4)nn3)c3cn[nH]c23)c1` (stereo not shown) [Compound 511], the IC50 is 100 to 1000 nM in the assay with HTT [1] (Homo sapiens, K562, 24 h); less than 100 nM in the assay on HTT [2] (Homo sapiens); 100 to 1000 nM in the assay on SMN2 (Homo sapiens); 100 to 1000 nM in the assay on Target C [3] (Homo sapiens); 1000 to 10000 nM with MYB [4] (Homo sapiens, K562, 24 h); 100 to 1000 nM in the assay on Target C [5] (Homo sapiens, K562, 24 h). Besides, the IC50 with MYB [6] (Homo sapiens) was 1000 to 10000 nM.
Take `c1cnn(-c2ccc(-c3cnc(N4CCC(NC5CC5)C4)nn3)c3cn[nH]c23)c1` (stereo not shown) [Compound 548]: the IC50 in the assay on HTT [1] (24 hours) is 1000 to 10000 nM; in the assay on HTT [2], 1000 to 10000 nM; in the assay with SMN2, 1000 to 10000 nM; with Target C [3], greater than 10000 nM; with MYB [4] (24 hours), greater than 10000 nM; in the assay on Target C [5] (24 hours), 1000 to 10000 nM. Further, the IC50 in the assay on MYB [6] was greater than 10000 nM.
On to `CNC1CCN(c2ncc(-c3ccc(-n4cccn4)c4[nH]ncc34)nn2)C1` (stereo not shown) [Compound 549], for which the IC50 in the assay on HTT [1] (24 hours) was 1000 to 10000 nM; with HTT [2], 1000 to 10000 nM; in the assay on SMN2, 1000 to 10000 nM; in the assay with Target C [3] it was greater than 10000 nM; in the assay with MYB [4] (24 hours), 1000 to 10000 nM; in the assay on Target C [5] (24 hours) it was 1000 to 10000 nM. Moreover, in the assay on MYB [6], the IC50 fell in the range of 1000 to 10000 nM.
In the case of `c1nc2c(-c3cn[nH]c3)ccc(-c3cnc(N4CCN[C@@H](C5CC5)C4)nn3)c2s1` [Compound 552], the 50% inhibitory concentration (IC50) in the assay with HTT [1] (Homo sapiens, K562, 24 h) lay in the range of 100 to 1000 nM; in the assay on HTT [2] (Homo sapiens) it was 100 to 1000 nM; in the assay on SMN2 (Homo sapiens), 100 to 1000 nM; in the assay on Target C [3] (Homo sapiens), 1000 to 10000 nM; in the assay with MYB [4] (Homo sapiens, K562, 24 h), 1000 to 10000 nM; in the assay on Target C [5] (Homo sapiens, K562, 24 h), 100 to 1000 nM. The IC50 in the assay with MYB [6] (Homo sapiens) was 1000 to 10000 nM.
As for `CC1(C)CC(Oc2ccc(-c3ccc(-n4cccn4)c4[nH]ncc34)nn2)CC(C)(C)N1` [Compound 554], the half-maximal inhibitory concentration (IC50) in the assay on HTT [1] (Homo sapiens, K562, 24 h) is 100 to 1000 nM; in the assay on HTT [2] (Homo sapiens), 100 to 1000 nM; with SMN2 (Homo sapiens), 100 to 1000 nM; in the assay with Target C [3] (Homo sapiens) it was 1000 to 10000 nM; with MYB [4] (Homo sapiens, K562, 24 h), 100 to 1000 nM; in the assay on Target C [5] (Homo sapiens, K562, 24 h), 100 to 1000 nM. In addition, in the assay with MYB [6] (Homo sapiens), the IC50 is 100 to 1000 nM.
Turning to `CC1(C)CC(Nc2ccc(-c3ccc(-n4cccn4)c4[nH]ncc34)nn2)CC(C)(C)N1` [Compound 558], the half-maximal inhibitory concentration (IC50) in the assay on HTT [1] (Homo sapiens, K562, 24 h) is less than 100 nM; in the assay with HTT [2] (Homo sapiens), 100 to 1000 nM; in the assay on SMN2 (Homo sapiens), less than 100 nM; in the assay on Target C [3] (Homo sapiens), 100 to 1000 nM; in the assay on MYB [4] (Homo sapiens, K562, 24 h), 100 to 1000 nM; in the assay on Target C [5] (Homo sapiens, K562, 24 h), less than 100 nM. In addition, the IC50 in the assay with MYB [6] (Homo sapiens) is 100 to 1000 nM.
As for `CN(c1ccc(-c2ccc(-n3cccn3)c3[nH]ncc23)nn1)C1CC(C)(C)NC(C)(C)C1` [Compound 559], the IC50 was 100 to 1000 nM in the assay with HTT [1] (Homo sapiens, K562, 24 h); 100 to 1000 nM in the assay with HTT [2] (Homo sapiens); 100 to 1000 nM with SMN2 (Homo sapiens); 1000 to 10000 nM in the assay on Target C [3] (Homo sapiens); 100 to 1000 nM with MYB [4] (Homo sapiens, K562, 24 h); 100 to 1000 nM in the assay with Target C [5] (Homo sapiens, K562, 24 h). Besides, in the assay on MYB [6] (Homo sapiens), the IC50 was 1000 to 10000 nM.
As for `c1cnn(-c2ccc(-c3ccc(N4CCNC(C5CC5)C4)nn3)c3cn[nH]c23)c1` (stereo not shown) [Compound 560], the IC50 was 100 to 1000 nM in the assay with HTT [1] (Homo sapiens, K562, 24 h); 100 to 1000 nM with HTT [2] (Homo sapiens); 100 to 1000 nM with SMN2 (Homo sapiens); 1000 to 10000 nM with Target C [3] (Homo sapiens); 1000 to 10000 nM in the assay on MYB [4] (Homo sapiens, K562, 24 h); 100 to 1000 nM with Target C [5] (Homo sapiens, K562, 24 h). Moreover, the IC50 in the assay with MYB [6] (Homo sapiens) lay within 1000 to 10000 nM.
For `C[C@@H]1CN(c2ncc(-c3ccc(-c4cn[nH]c4)c4ncsc34)nn2)C[C@H](C)N1` [Compound 562], the IC50 in the assay with HTT [1] (Homo sapiens, K562, 24 h) was 1000 to 10000 nM; in the assay on HTT [2] (Homo sapiens), greater than 10000 nM; in the assay on SMN2 (Homo sapiens) it was 1000 to 10000 nM; in the assay with Target C [3] (Homo sapiens) it was greater than 10000 nM; in the assay on MYB [4] (Homo sapiens, K562, 24 h), 1000 to 10000 nM; in the assay with Target C [5] (Homo sapiens, K562, 24 h) it was 1000 to 10000 nM. The IC50 in the assay with MYB [6] (Homo sapiens) is greater than 10000 nM.
